Assay [1] concerns the target T1, Amine oxidase [flavin-containing] A (Homo sapiens, UniProt P21397).
T1 sequence (P21397 whole entry): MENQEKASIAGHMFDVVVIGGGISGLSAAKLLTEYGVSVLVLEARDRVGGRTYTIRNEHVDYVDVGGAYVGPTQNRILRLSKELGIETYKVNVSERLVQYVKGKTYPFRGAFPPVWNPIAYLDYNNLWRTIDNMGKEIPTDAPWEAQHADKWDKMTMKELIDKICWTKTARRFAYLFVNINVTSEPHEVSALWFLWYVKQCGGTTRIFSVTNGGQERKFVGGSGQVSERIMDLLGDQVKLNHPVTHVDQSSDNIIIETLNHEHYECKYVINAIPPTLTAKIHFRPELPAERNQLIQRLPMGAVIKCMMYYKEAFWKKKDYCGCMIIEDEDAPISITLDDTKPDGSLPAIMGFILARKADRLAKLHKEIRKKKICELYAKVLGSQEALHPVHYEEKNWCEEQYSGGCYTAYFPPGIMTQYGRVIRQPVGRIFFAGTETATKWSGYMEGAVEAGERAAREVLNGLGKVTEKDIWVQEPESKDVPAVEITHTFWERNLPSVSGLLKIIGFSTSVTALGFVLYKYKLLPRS
It counts as functional.

In assay [2] the target is Voltage-dependent L-type calcium channel subunit alpha-1C (Rattus norvegicus, UniProt P22002). It counts as functional.
For assay [3], the target named is T2, 5-hydroxytryptamine receptor 2C (Homo sapiens, UniProt P28335).
T2 sequence (P28335 whole entry): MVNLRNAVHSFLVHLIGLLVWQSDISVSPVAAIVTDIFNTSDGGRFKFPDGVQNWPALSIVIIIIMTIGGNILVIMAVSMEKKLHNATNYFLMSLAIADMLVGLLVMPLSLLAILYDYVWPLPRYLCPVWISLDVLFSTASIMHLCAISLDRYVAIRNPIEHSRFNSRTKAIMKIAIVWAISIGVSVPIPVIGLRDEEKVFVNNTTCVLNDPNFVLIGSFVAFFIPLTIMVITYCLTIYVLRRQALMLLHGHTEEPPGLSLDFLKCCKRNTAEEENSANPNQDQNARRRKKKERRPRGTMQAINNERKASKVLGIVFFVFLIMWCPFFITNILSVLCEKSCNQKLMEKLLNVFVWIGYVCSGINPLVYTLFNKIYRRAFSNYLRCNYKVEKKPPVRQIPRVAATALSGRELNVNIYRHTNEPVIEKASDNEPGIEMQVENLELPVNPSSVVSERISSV

Assay [4] deals with Cannabinoid receptor 1 (Homo sapiens, UniProt P21554). It counts as functional, cell-based.
Assay [5] addresses T3, 5-hydroxytryptamine receptor 1A (Homo sapiens, UniProt P08908).
T3 sequence (P08908 whole entry): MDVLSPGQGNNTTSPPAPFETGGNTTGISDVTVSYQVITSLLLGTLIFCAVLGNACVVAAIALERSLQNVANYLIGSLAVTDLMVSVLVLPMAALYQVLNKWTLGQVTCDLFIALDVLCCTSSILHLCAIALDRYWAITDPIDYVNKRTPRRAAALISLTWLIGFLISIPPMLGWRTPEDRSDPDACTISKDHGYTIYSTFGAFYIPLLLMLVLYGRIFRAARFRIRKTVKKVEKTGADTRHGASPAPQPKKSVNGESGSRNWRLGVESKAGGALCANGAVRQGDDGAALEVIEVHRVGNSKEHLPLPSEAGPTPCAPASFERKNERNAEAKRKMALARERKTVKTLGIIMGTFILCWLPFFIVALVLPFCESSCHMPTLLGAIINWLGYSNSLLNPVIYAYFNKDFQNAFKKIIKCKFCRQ
Format: functional, cell-based.

The target in assay [6] is Muscarinic acetylcholine receptor M3 (Homo sapiens, UniProt P20309).
Assay [7] concerns the target T3, 5-hydroxytryptamine receptor 1A. It counts as functional, cell-based. This is another data set of the same source.
For assay [8], the target named is Prothrombin (Homo sapiens, UniProt P00734). Format: functional.
Assay [9] has as its target Prostaglandin G/H synthase 1 (Homo sapiens, UniProt P23219). Format: functional.
Assay [10] addresses T4, Thromboxane A2 receptor (Homo sapiens, UniProt P21731).
T4 sequence (P21731 whole entry): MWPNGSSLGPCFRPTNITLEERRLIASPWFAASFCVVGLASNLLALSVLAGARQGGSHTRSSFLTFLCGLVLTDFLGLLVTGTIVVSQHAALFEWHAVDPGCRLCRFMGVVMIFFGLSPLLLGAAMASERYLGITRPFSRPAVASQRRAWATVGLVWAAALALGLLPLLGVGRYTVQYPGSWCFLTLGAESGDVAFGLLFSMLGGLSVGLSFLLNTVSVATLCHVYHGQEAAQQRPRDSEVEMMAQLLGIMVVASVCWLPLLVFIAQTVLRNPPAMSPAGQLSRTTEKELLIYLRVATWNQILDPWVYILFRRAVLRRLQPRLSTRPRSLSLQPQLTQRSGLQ
It counts as functional, cell-based.

Assay [11] has as its target T5, Muscarinic acetylcholine receptor M2 (Homo sapiens, UniProt P08172).
T5 sequence (P08172 whole entry): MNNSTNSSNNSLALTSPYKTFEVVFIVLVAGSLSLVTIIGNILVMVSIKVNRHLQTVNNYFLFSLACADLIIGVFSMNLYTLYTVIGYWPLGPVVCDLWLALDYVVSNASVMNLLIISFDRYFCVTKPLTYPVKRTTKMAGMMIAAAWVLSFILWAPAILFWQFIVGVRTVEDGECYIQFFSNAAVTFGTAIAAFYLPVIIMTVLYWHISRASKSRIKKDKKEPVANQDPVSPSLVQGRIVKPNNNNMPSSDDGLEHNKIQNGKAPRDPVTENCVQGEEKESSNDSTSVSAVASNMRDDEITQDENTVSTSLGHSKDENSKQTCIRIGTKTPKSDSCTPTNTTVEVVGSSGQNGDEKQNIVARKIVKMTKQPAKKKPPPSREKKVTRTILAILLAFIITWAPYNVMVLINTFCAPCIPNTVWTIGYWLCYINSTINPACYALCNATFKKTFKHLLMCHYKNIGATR

Assay [12] concerns the target 5-hydroxytryptamine receptor 2B (Homo sapiens, UniProt P41595). It counts as functional, cell-based.

A value given as a limit tells only on which side of the number the result lay.

Broadly, the AC50 is the midpoint of the concentration-response curve, whichever way the signal moves.
Further: assay procedure not described here.

Muscarinic acetylcholine receptor M3, sequence (P20309 whole entry): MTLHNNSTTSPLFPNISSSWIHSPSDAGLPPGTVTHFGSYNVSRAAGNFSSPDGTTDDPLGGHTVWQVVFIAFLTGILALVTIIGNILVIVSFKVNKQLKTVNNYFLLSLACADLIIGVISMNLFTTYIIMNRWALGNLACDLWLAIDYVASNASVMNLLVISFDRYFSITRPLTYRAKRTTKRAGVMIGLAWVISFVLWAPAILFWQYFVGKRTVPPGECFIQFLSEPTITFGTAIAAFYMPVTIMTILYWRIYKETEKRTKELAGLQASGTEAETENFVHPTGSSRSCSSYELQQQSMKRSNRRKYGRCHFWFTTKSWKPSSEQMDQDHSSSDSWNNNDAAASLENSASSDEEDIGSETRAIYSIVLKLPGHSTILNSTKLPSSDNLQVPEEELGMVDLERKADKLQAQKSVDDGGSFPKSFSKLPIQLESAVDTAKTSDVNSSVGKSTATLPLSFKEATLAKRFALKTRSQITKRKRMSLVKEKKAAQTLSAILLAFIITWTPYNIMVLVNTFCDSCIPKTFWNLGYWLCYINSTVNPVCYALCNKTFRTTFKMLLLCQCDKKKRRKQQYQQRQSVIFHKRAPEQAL
5-hydroxytryptamine receptor 2B, sequence (P41595 whole entry): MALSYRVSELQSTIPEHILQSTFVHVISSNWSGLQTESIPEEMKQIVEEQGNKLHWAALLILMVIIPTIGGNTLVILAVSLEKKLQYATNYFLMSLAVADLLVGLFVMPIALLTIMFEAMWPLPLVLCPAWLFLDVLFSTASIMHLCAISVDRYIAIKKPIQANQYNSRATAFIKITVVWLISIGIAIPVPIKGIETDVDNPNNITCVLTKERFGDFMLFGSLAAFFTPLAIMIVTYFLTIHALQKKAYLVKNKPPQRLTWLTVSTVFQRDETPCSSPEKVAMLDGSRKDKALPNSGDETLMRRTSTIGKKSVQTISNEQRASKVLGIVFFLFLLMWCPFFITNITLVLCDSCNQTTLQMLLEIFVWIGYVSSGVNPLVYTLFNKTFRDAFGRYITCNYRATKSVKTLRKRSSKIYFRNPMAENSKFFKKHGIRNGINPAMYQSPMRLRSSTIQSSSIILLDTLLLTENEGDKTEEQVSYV
Prostaglandin G/H synthase 1, sequence (P23219 whole entry): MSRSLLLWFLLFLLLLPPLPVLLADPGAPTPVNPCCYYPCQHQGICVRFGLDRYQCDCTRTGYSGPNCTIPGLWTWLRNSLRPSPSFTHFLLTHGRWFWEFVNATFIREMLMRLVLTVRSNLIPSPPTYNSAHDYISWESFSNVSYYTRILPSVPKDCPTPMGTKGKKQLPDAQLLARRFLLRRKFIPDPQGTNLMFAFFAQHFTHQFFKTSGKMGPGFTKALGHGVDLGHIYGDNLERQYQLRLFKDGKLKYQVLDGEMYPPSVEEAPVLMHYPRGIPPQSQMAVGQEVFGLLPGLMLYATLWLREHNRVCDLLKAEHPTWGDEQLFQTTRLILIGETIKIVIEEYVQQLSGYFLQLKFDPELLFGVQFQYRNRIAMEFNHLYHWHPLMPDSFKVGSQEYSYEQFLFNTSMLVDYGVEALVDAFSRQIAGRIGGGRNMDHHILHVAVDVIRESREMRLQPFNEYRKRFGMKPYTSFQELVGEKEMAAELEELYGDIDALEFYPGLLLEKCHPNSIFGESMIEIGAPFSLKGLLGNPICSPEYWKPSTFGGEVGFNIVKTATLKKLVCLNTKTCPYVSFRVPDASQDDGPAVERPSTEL
Cannabinoid receptor 1, sequence (P21554 whole entry): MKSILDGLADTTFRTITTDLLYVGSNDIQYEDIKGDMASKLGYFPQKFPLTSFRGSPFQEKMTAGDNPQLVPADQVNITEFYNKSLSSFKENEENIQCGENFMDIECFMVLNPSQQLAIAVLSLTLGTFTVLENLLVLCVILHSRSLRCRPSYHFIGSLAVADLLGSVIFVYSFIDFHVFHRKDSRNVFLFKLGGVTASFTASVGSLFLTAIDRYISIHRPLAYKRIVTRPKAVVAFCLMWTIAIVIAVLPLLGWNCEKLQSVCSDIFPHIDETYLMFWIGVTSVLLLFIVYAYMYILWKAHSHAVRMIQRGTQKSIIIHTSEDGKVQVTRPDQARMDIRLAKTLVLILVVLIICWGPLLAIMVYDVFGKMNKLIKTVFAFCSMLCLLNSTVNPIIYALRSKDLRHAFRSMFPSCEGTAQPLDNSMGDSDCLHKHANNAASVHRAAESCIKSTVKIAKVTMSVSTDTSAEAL
Voltage-dependent L-type calcium channel subunit alpha-1C, sequence (P22002 whole entry): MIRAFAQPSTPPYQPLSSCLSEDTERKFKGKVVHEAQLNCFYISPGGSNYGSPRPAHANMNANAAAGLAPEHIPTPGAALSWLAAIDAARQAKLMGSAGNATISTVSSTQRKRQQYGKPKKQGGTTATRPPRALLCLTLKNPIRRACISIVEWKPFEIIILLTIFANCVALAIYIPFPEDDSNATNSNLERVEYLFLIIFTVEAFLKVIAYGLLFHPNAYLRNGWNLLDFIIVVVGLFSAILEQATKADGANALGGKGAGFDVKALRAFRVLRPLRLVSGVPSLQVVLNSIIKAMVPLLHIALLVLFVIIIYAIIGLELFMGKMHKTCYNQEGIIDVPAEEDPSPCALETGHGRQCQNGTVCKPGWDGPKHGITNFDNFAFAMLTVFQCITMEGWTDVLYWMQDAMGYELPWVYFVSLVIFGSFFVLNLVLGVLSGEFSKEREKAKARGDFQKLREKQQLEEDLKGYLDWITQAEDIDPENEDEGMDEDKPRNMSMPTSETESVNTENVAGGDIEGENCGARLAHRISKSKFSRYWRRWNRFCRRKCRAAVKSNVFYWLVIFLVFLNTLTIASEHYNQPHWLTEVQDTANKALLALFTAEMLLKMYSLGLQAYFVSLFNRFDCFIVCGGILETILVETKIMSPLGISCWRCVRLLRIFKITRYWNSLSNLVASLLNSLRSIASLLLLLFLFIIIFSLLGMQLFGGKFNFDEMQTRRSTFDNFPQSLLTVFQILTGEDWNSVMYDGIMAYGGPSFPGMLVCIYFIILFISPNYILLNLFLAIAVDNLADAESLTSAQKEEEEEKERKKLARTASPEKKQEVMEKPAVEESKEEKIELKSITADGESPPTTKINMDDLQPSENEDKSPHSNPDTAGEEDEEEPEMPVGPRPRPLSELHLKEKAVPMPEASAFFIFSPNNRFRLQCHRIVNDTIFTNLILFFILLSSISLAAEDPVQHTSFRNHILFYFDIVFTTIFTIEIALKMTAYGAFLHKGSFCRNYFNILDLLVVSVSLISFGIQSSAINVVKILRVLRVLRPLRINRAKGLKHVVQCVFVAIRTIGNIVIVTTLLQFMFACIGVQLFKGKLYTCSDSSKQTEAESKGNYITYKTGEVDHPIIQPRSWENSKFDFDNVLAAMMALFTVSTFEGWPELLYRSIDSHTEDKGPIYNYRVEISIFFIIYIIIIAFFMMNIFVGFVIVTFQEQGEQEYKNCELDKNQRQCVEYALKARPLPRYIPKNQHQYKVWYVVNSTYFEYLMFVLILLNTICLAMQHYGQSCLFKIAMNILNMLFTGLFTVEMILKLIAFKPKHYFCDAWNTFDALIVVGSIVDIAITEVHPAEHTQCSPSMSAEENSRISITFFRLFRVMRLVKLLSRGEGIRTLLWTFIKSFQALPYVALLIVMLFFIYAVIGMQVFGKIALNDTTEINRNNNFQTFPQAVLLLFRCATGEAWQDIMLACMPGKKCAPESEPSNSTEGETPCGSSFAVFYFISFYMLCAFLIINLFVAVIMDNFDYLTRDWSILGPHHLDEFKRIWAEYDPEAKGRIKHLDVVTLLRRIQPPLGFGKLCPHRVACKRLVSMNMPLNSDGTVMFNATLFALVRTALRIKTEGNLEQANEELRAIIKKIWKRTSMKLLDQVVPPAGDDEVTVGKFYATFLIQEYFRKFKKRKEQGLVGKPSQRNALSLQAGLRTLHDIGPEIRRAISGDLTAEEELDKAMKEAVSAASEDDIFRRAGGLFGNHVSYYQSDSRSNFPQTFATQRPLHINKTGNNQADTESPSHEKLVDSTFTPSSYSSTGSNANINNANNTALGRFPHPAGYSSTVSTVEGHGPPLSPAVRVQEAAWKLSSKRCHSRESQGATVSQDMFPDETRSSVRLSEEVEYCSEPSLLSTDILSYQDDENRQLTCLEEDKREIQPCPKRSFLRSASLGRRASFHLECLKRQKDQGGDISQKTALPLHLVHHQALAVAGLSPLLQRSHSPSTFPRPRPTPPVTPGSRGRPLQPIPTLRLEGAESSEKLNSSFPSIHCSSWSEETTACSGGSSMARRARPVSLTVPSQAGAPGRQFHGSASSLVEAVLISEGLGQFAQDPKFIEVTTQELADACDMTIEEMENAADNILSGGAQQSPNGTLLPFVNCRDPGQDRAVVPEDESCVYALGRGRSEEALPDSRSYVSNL

As to `CCN(CC)C(=O)C1(c2ccccc2)CC1CN` (configuration not stated), the AC50 in assay [1] was above 30 µM; in assay [2], above 30 µM; in assay [3], 0.59 µM; in [4], above 30 µM; in assay [5], above 30 µM; in [6], above 30 µM. Further, the AC50 in assay [7] was above 30 µM.

Consider `CN(C)C(=O)Oc1cccc([N+](C)(C)C)c1` [NEOSTIGMINE], for which the AC50 in [8], in assay [9], in assay [10], in assay [11] and in assay [12] was above 30 µM in each case.

The values above are taken from ChEMBL document CHEMBL5291721, “A preclinical secondary pharmacology resource illuminates target-adverse drug reaction associations of marketed drugs” (Nat Commun, 2023).
